By solubility is commonly meant the concentration that dissolves in the medium under given conditions. High values mean a readily soluble substance, low ones a poorly soluble substance. What is called IC50 is the point on the concentration scale where inhibition reaches its midpoint. High values mean weaker potency in that assay, low ones greater potency in that assay. In general, Kd refers to the constant that tells how readily two partners part at equilibrium.

The target of series [1] is T1, Tyrosine-protein kinase JAK1 (Homo sapiens, UniProt P23458).
Series [2] addresses T2, Tyrosine-protein kinase JAK3 (Homo sapiens, UniProt P52333).
T2 sequence (P52333 whole entry): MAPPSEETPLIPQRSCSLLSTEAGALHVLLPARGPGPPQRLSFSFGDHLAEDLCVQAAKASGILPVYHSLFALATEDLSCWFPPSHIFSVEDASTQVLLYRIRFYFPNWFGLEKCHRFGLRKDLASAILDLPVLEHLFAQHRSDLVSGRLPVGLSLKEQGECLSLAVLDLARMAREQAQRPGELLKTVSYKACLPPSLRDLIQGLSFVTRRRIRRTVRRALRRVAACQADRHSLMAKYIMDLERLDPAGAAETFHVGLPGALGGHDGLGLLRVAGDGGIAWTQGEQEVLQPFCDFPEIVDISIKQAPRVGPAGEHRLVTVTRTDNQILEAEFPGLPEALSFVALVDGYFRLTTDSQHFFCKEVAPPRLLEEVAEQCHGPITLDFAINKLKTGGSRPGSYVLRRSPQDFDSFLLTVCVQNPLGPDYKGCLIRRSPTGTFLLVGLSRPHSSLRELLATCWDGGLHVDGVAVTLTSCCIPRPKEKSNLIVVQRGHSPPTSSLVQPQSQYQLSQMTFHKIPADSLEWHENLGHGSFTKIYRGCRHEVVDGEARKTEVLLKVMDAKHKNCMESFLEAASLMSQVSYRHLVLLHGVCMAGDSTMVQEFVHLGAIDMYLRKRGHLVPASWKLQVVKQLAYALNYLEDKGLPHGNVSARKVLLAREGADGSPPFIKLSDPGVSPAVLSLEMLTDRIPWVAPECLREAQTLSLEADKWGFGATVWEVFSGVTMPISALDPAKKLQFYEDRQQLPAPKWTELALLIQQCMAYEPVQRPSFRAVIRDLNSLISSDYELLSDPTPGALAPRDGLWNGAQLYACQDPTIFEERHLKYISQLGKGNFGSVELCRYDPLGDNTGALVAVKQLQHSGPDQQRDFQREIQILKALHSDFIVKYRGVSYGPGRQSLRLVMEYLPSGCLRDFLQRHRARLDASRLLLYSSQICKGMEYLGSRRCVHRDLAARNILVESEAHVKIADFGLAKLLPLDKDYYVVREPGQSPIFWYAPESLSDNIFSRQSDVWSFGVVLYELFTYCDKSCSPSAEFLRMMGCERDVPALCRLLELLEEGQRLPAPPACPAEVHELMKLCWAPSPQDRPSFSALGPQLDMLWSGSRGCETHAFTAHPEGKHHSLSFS

Series [3] concerns the target T1, Tyrosine-protein kinase JAK1. The source holds these as a separate data set.
Description: Binding affinity to JAK1 (unknown origin) by ligand displacement assay
Series [4] has as its target Non-receptor tyrosine-protein kinase TYK2 (Homo sapiens, UniProt P29597).
Description: Binding affinity to TYK2 (unknown origin) by ligand displacement assay

Structures are written as SMILES. ≈ marks a conversion by molar mass, not a printed value.

Take `C[C@@H](NC(=O)c1c[nH]c2ncc(-n3ncc4cc(Cl)ccc43)nc12)C(=O)N1CC(C#N)C1`: the solubility in “physchem” was < 1 µg/mL. Further, the midpoint of inhibition in series [1], the IC50, lay at 370 nM.
As for `C[C@@H](NC(=O)c1c[nH]c2ncc(-c3nn(C)c4cc(C5CC5)ccc34)nc12)C(=O)N1CC(C#N)C1`, the IC50 in series [1] amounted to 10 nM.
In turn, `Cn1nc(-c2cnc3[nH]cc(C(=O)N[C@@H](C(=O)N4CC(C#N)C4)C4CC4)c3n2)c2ccc(Cl)cc21` showed an IC50 in series [1] of 0.8 nM.
In “physchem”, `C[C@@H](NC(=O)c1c[nH]c2ncc(C3CC3)nc12)C(=O)N1CC(C#N)C1` gave a solubility of 277 µg/mL (≈ 819 µM).
As to `C[C@@H](NC(=O)c1c[nH]c2ncc(-c3nn(C)c4ccccc34)nc12)C(=O)N1CC(C#N)C1`, the IC50 in series [1] turned out to be 22 nM.
In the case of `COc1ccc2c(-c3cnc4[nH]cc(C(=O)N[C@H](C)C(=O)N5CC(C#N)C5)c4n3)nn(C)c2c1`, in the series “physchem”, the solubility was < 1 µg/mL. This molecule came in with an IC50 in series [1] of 38 nM.
Molecule `CCn1cc(-c2cnc3[nH]cc(C(=O)N[C@H](C)C(=O)N4CC(C#N)C4)c3n2)cn1` returned a solubility in the series “physchem” of 366 µg/mL (≈ 933 µM). Further, the concentration for half-maximal inhibition (IC50) in series [2] stood at 5.2 nM; in series [1], 23 nM.
Molecule `C[C@@H](NC(=O)c1c[nH]c2ncc(-c3ncn4cc(F)ccc34)nc12)C(=O)N1CC(C#N)C1` came in with a solubility in “physchem” of 39 µg/mL (≈ 90.2 µM). The same molecule registered an IC50 in series [1] of 16 nM.
The molecule `C[C@@H](NC(=O)c1c[nH]c2ncc(-c3nn(C)c4ccc(Cl)cc34)nc12)C(=O)N1CC(C#N)C1` had an IC50 in series [1] of 61 nM.
Take `C[C@@H](NC(=O)c1c[nH]c2ncc(-c3nn(C)c4cc(C#N)ccc34)nc12)C(=O)N1CC(C#N)C1`: in the series “physchem”, the solubility was < 1 µg/mL. This molecule also registered an IC50 in series [1] of 51 nM.
The corresponding values for `C[C@@H](NC(=O)c1c[nH]c2ncc(-c3cn(C)c4cc(Cl)ccc34)nc12)C(=O)N1CC(C#N)C1` are < 1 µg/mL and 1 nM.
The corresponding values for `CC[C@@H](NC(=O)c1c[nH]c2ncc(-c3nn(C)c4cc(Cl)ccc34)nc12)C(=O)N1CC(C#N)C1` are < 1 µg/mL and 4.6 nM.
For `C[C@@H](NC(=O)c1c[nH]c2ncc(-c3cnc4cc(Cl)ccn34)nc12)C(=O)N1CC(C#N)C1`, in series [1], the IC50 was found to be 61 nM.
As to `C[C@@H](NC(=O)c1c[nH]c2ncc(-c3nn(C)c4cc(Cl)ccc34)nc12)C(=O)N1CC(C#N)C1`, in “physchem”, the solubility is < 1 µg/mL. The Kd stood at 73 nM in series [3] and 350 nM in series [4]. For the same molecule, 31 nM corresponded to half-maximal inhibition in series [1] (IC50).
For `COc1cc(-c2cnc3[nH]cc(C(=O)N[C@H](C)C(=O)N4CC(C#N)C4)c3n2)cc(OC)c1OC`, in series [1], 7.4 nM corresponded to half-maximal inhibition (IC50).
In the series “physchem”, `C[C@@H](NC(=O)c1c[nH]c2ncc(-c3ncn4cc(F)cc(F)c34)nc12)C(=O)N1CC(C#N)C1` displayed a solubility of 31 µg/mL (≈ 68.8 µM). In series [1], this molecule registered an IC50 of 73 nM.
Turning to `Cn1nc(-c2cnc3[nH]cc(C(=O)N[C@@H](C(=O)N4CC(C#N)C4)C(C)(C)C)c3n2)c2ccc(Cl)cc21`, it took 5.5 nM to reach half-maximal inhibition in series [1] (IC50).
In series [1], `C[C@@H](NC(=O)c1c[nH]c2ncc(-c3nn(C)c4cc(C(C)(C)C)ccc34)nc12)C(=O)N1CC(C#N)C1` showed a half-maximal inhibitory concentration (IC50) of 12 nM.
With `C[C@@H](NC(=O)c1c[nH]c2ncc(-c3nn(C)c4cc(F)ccc34)nc12)C(=O)N1CC(C#N)C1`, the solubility in “physchem” was < 1 µg/mL. Also, the half-inhibitory concentration (IC50) in series [1] is 17 nM.
As for `C[C@@H](NC(=O)c1c[nH]c2ncc(-c3nn(C)c4cc(Cl)cc(F)c34)nc12)C(=O)N1CC(C#N)C1`, in “physchem”, the solubility is < 1 µg/mL.

The record behind these values is ChEMBL document CHEMBL2375236, “Strategic use of conformational bias and structure based design to identify potent JAK3 inhibitors with improved selectivity against the JAK family and the kinome” (Bioorg Med Chem Lett, 2013).
